Laboratory results reported in patent US20240199692A1 (priority 2019, published 2024).
*1 amine or outer side, *2 acyl side, *3 side chain or, on linkers, in order; H or OH if unused. Where a SMILES comes first, the peptide text is derived from it. [ ]: non-standard residue; d: D form. The star is where a group is joined. Phenylsulfonyl(4-anisamido) = COc1ccc(C(=O)Nc2ccc(S(=O)(=O)*)cc2)cc1; Benzoyl(4-OPh(4-CONH2)) = NC(=O)c1ccc(Oc2ccc(C(=O)*)cc2)cc1; X14 = CN(C)C(=O)c1ccc(C(=O)Nc2ccc(S(=O)(=O)*)cc2)cc1; X3 = O=C(Nc1ccc(S(=O)(=O)*)cc1)c1ccc(OC2CC2)cc1; X12 = O=S(=O)(c1ccc(-c2cn(-c3ccccc3)nn2)cc1)*; X8 = CCCOc1ccc(C(=O)Nc2ccc(S(=O)(=O)*)cc2)cc1; X17 = CC(=O)Nc1ccc(-c2ccc(S(=O)(=O)*)cc2)cc1; X2 = CCOc1ccc(C(=O)Nc2ccc(S(=O)(=O)*)cc2)cc1; X10 = NC(=O)c1ccc(-c2ccc(S(=O)(=O)*)cc2)cc1; X15 = CC(=O)c1ccc(-c2ccc(S(=O)(=O)*)cc2)cc1; d(γGlu) = O=C(O)[C@@H](CCC(=O)[*:2])N[*:1]; d(βAsp) = O=C(O)[C@@H](CC(=O)[*:2])N[*:1]; X7 = O=S(=O)(c1ccc(-c2ccc(OCCO)cc2)cc1)*; X13 = Cc1ccc(C#Cc2ccc(S(=O)(=O)*)s2)cc1; X5 = O=S(=O)(c1ccc(-c2ccc(CO)cc2)cc1)*; εLys = N[C@@H](CCCCN[*:1])C(=O)[*:2]; NMeI = CC[C@H](C)[C@H](NC)C(=O)O; NMeE = CN[C@@H](CCC(=O)O)C(=O)O; NMeM = CN[C@@H](CCSC)C(=O)O; NMeV = CN[C@H](C(=O)O)C(C)C; β3hP = O=C(O)C[C@@H]1CCCN1; Orn = NCCC[C@H](N)C(=O)O; Dab = NCC[C@H](N)C(=O)O; Dap = NC[C@H](N)C(=O)O; GABA = NCCCC(=O)O; βAla = NCCC(=O)O

The molecules below were run against T1, MMP2 (Homo sapiens, UniProt P08253) (assay: Inhibitory effects on human MMP2 (Method 1), enzyme assay with MOCAc-Pro-Leu-Gly-Leu-A2pr(Dnp)-Ala-Arg-NH2 substrate, 96-well). Details: Test Example No. 1-1 (Method 1, 96-well microplate); read-out: Human MMP2, IC50.
T1 sequence (P08253 110-660): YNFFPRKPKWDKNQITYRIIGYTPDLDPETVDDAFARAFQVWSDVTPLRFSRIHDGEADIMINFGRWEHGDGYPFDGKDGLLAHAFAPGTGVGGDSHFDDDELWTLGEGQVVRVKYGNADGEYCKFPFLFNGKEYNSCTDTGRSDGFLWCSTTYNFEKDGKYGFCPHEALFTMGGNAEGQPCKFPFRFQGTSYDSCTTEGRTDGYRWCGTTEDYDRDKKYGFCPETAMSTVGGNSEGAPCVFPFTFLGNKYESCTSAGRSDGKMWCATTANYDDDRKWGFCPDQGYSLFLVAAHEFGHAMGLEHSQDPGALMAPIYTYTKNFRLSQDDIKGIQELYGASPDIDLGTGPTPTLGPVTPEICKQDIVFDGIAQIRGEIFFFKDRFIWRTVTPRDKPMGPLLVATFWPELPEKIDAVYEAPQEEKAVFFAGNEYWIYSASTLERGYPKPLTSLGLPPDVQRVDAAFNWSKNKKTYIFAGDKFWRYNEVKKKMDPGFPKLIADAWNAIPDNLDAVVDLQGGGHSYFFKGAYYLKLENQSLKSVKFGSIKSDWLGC
Format: biochemical
Method: In a reaction solution [50 mmol/L Tris-HCl (pH 7.5), 150 mmol/L NaCl, 10 mmol/L CaCl2, 0.05% Brij L23], 100 μg/mL human recombinant MMP2 enzyme and 1 mmol/L 4-Aminophenylmercuric acetate were mixed together, and reacted at 37° C. for 60 minutes. The human MMP2 activated through the reaction was poured into a 96-well microplate to reach a final concentration of 0.7 or 7 ng/mL.

Structure (SMILES) | IC50 [nM]
CSCC[C@@H](C(=O)N1CCC[C@H]1C(N)=O)N(C)C(=O)[C@H](CC(C)C)NC(=O)[C@H](C)NC(=O)[C@H](CC(=O)O)NC(=O)[C@H](CC(N)=O)NC(=O)CCNS(=O)(=O)c1ccc(C#Cc2ccc(C)cc2)s1 [Compound 587, N-{5-[(4-methylphenyl)ethynyl]thiophene-2-sulfonyl}-β-alanyl-L-asparaginyl-L-α-aspartyl-L-alanyl-L-leucyl-N-methyl-L-methionyl-L-prolinamide] ({X13-βAla}-NDAL[NMeM]P-NH2) | 0.19
CC[C@H](C)[C@@H](C(=O)N1CCC[C@H]1CC(N)=O)N(C)C(=O)[C@H](CC(C)C)NC(=O)[C@H](CCN)NC(=O)CC[C@@H](NS(=O)(=O)c1ccc(-c2cn(-c3ccccc3)nn2)cc1)C(=O)O [Compound 608, N-[(2S)-4-amino-1-({(2S)-1-[{(2S,3S)-1-[(2S)-2-(2-amino-2-oxoethyl)pyrrolidin-1-yl]-3-methyl-1-oxopentan-2-yl}(methyl)amino]-4-methyl-1-oxopentan-2-yl}amino)-1-oxobutan-2-yl]-N^2-[4-(1-phenyl-1H-1,2,3-triazol-4-yl)benzene-1-sulfonyl]-D-glutamine] ({X12-d(γGlu)}-[Dab]L[NMeI][β3hP]-NH2) | 0.34
CC[C@H](C)[C@@H](C(=O)N1CCC[C@H]1CC(N)=O)N(C)C(=O)[C@H](CC(C)C)NC(=O)[C@H](C)NC(=O)C[C@@H](NS(=O)(=O)c1ccc(-c2ccc(C(C)=O)cc2)cc1)C(=O)O [Compound 634, N^2-(4′-acetyl[1,1′-biphenyl]-4-sulfonyl)-N-[(2S)-1-({(2S)-1-[{(2S,3S)-1-[(2S)-2-(2-amino-2-oxoethyl)pyrrolidin-1-yl]-3-methyl-1-oxopentan-2-yl}(methyl)amino]-4-methyl-1-oxopentan-2-yl}amino)-1-oxopropan-2-yl]-D-asparagine] ({X15-d(βAsp)}-AL[NMeI][β3hP]-NH2) | 0.13
CC[C@H](C)[C@@H](C(=O)N1CCC[C@H]1CC(N)=O)N(C)C(=O)[C@H](CC(C)C)NC(=O)[C@H](C)NC(=O)C[C@@H](NS(=O)(=O)c1ccc(-c2ccc(NC(C)=O)cc2)cc1)C(=O)O [Compound 636] ({X17-d(βAsp)}-AL[NMeI][β3hP]-NH2; N-terminus assumed) | 0.94
CC(C)C[C@H](NC(=O)[C@H](CN)NC(=O)C[C@@H](NS(=O)(=O)c1ccc(-c2ccc(OCCO)cc2)cc1)C(=O)O)C(=O)N(C)[C@@H](CCC(=O)O)C(=O)N1CCC[C@H]1CC(N)=O [Compound 638] ({X7-d(βAsp)}-[Dap]L[NMeE][β3hP]-NH2; N-terminus assumed) | 0.14
CC(C)C[C@H](NC(=O)[C@H](CCN)NC(=O)C[C@@H](NS(=O)(=O)c1ccc(-c2ccc(OCCO)cc2)cc1)C(=O)O)C(=O)N(C)[C@@H](CCC(=O)O)C(=O)N1CCC[C@H]1CC(N)=O [Compound 640] ({X7-d(βAsp)}-[Dab]L[NMeE][β3hP]-NH2; N-terminus assumed) | 0.38
CC[C@H](C)[C@@H](C(=O)N1CCC[C@H]1CC(N)=O)N(C)C(=O)[C@H](CC(C)C)NC(=O)[C@H](CCN)NC(=O)CC[C@@H](NS(=O)(=O)c1ccc(NC(=O)c2ccc(OC)cc2)cc1)C(=O)O [Compound 695] ({Phenylsulfonyl(4-anisamido)-d(γGlu)}-[Dab]L[NMeI][β3hP]-NH2; N-terminus assumed) | 0.53
CCOc1ccc(C(=O)Nc2ccc(S(=O)(=O)N[C@H](CCC(=O)N[C@@H](CCN)C(=O)N[C@@H](CC(C)C)C(=O)N(C)[C@H](C(=O)N3CCC[C@H]3CC(N)=O)[C@@H](C)CC)C(=O)O)cc2)cc1 [Compound 698] ({X2-d(γGlu)}-[Dab]L[NMeI][β3hP]-NH2; N-terminus assumed) | 0.31
CCOc1ccc(C(=O)Nc2ccc(S(=O)(=O)N[C@H](CCC(=O)N[C@@H](CCN)C(=O)N[C@@H](CC(C)C)C(=O)N(C)[C@@H](CCC(=O)O)C(=O)N3CCC[C@H]3CC(N)=O)C(=O)O)cc2)cc1 [Compound 702] ({X2-d(γGlu)}-[Dab]L[NMeE][β3hP]-NH2; N-terminus assumed) | 0.25

More lines, in order of falling IC50, values ahead:

IC50 [nM] | Structure (SMILES)
1.6 | CC[C@H](C)[C@@H](C(=O)N1CCC[C@H]1CC(N)=O)N(C)C(=O)[C@H](CC(C)C)NC(=O)[C@H](CCN)NC(=O)C[C@@H](NS(=O)(=O)c1ccc(-c2ccc(CO)cc2)cc1)C(=O)O [Compound 642] ({X5-d(βAsp)}-[Dab]L[NMeI][β3hP]-NH2; N-terminus assumed)
1.5 | CC(C)C[C@H](NC(=O)[C@H](CN)NC(=O)C[C@@H](NS(=O)(=O)c1ccc(NC(=O)c2ccc(C(=O)N(C)C)cc2)cc1)C(=O)O)C(=O)N(C)[C@@H](CCC(=O)O)C(=O)N1CCC[C@H]1CC(N)=O [Compound 679] ({X14-d(βAsp)}-[Dap]L[NMeE][β3hP]-NH2; N-terminus assumed)
0.89 | CC[C@H](C)[C@@H](C(=O)NCCCC[C@H](N)C(N)=O)N(C)C(=O)[C@H](CC(C)C)NC(=O)[C@H](CCN)NC(=O)[C@H](CC(=O)O)NC(=O)[C@H](NC(=O)[C@@H](N)CCCNC(=O)c1ccc(Oc2ccc(C(N)=O)cc2)cc1)[C@H](C)O [Compound 554] (H-[Orn](Benzoyl(4-OPh(4-CONH2)))[dT]D[Dab]L[NMeI][εLys]-NH2)
0.83 | CC[C@H](C)[C@@H](C(=O)N1CCC[C@H]1CC(N)=O)N(C)C(=O)[C@H](CC(C)C)NC(=O)[C@H](C)NC(=O)C[C@@H](NS(=O)(=O)c1ccc(-c2ccc(C(N)=O)cc2)cc1)C(=O)O [Compound 635] ({X10-d(βAsp)}-AL[NMeI][β3hP]-NH2; N-terminus assumed)
0.48 | CC(C)C[C@H](NC(=O)[C@H](CN)NC(=O)C[C@@H](NS(=O)(=O)c1ccc(-c2ccc(CO)cc2)cc1)C(=O)O)C(=O)N(C)[C@@H](CCC(=O)O)C(=O)N1CCC[C@H]1CC(N)=O [Compound 637] ({X5-d(βAsp)}-[Dap]L[NMeE][β3hP]-NH2; N-terminus assumed)
0.41 | CC[C@H](C)[C@@H](C(=O)N1CCC[C@H]1CC(N)=O)N(C)C(=O)[C@H](CC(C)C)NC(=O)[C@H](CCN)NC(=O)CC[C@@H](NS(=O)(=O)c1ccc(NC(=O)c2ccc(OC3CC3)cc2)cc1)C(=O)O [Compound 700] ({X3-d(γGlu)}-[Dab]L[NMeI][β3hP]-NH2; N-terminus assumed)
0.33 | CC(C)C[C@H](NC(=O)[C@H](CCN)NC(=O)CC[C@@H](NS(=O)(=O)c1ccc(NC(=O)c2ccc(OC3CC3)cc2)cc1)C(=O)O)C(=O)N(C)[C@@H](CCC(=O)O)C(=O)N1CCC[C@H]1CC(N)=O [Compound 703] ({X3-d(γGlu)}-[Dab]L[NMeE][β3hP]-NH2; N-terminus assumed)
0.28 | COc1ccc(C(=O)Nc2ccc(S(=O)(=O)N[C@H](CCC(=O)N[C@@H](CCN)C(=O)N[C@@H](CC(C)C)C(=O)N(C)[C@@H](CCC(=O)O)C(=O)N3CCC[C@H]3CC(N)=O)C(=O)O)cc2)cc1 [Compound 697] ({Phenylsulfonyl(4-anisamido)-d(γGlu)}-[Dab]L[NMeE][β3hP]-NH2; N-terminus assumed)
0.22 | CCCOc1ccc(C(=O)Nc2ccc(S(=O)(=O)N[C@H](CCC(=O)N[C@@H](CCN)C(=O)N[C@@H](CC(C)C)C(=O)N(C)[C@H](C(=O)N3CCC[C@H]3CC(N)=O)[C@@H](C)CC)C(=O)O)cc2)cc1 [Compound 696] ({X8-d(γGlu)}-[Dab]L[NMeI][β3hP]-NH2; N-terminus assumed)
0.12 | CSCC[C@@H](C(=O)N1CCC[C@H]1C(N)=O)N(C)C(=O)[C@H](CC(C)C)NC(=O)[C@H](C)NC(=O)[C@H](CC(=O)O)NC(=O)[C@H](CC(N)=O)NC(=O)CCCNS(=O)(=O)c1ccc(C#Cc2ccc(C)cc2)s1 [Compound 588] ({X13-GABA}-NDAL[NMeM]P-NH2; N-terminus assumed)
0.12 | Cc1ccc(C#Cc2ccc(S(=O)(=O)NCCC(=O)N[C@@H](CC(N)=O)C(=O)N[C@@H](CC(=O)O)C(=O)N[C@@H](C)C(=O)N[C@@H](CC(C)C)C(=O)N(C)[C@H](C(=O)N3CCC[C@H]3C(N)=O)C(C)C)s2)cc1 [Compound 589] ({X13-βAla}-NDAL[NMeV]P-NH2; N-terminus assumed)
0.094 | CC[C@H](C)[C@@H](C(=O)N1CCC[C@H]1CC(N)=O)N(C)C(=O)[C@H](CC(C)C)NC(=O)[C@H](CCN)NC(=O)C[C@@H](NS(=O)(=O)c1ccc(NC(=O)c2ccc(OC)cc2)cc1)C(=O)O [Compound 694] ({Phenylsulfonyl(4-anisamido)-d(βAsp)}-[Dab]L[NMeI][β3hP]-NH2; N-terminus assumed)
0.068 | CC[C@H](C)[C@@H](C(=O)N1CCC[C@H]1CC(N)=O)N(C)C(=O)[C@H](CC(C)C)NC(=O)[C@H](CN)NC(=O)C[C@@H](NS(=O)(=O)c1ccc(NC(=O)c2ccc(OC)cc2)cc1)C(=O)O [Compound 692, N-[(2S)-3-amino-1-({(2S)-1-[{(2S,3S)-1-[(2S)-2-(2-amino-2-oxoethyl)pyrrolidin-1-yl]-3-methyl-1-oxopentan-2-yl}(methyl)amino]-4-methyl-1-oxopentan-2-yl}amino)-1-oxopropan-2-yl]-N^2-[4-(4-methoxybenzamido)benzene-1-sulfonyl]-D-asparagine] ({Phenylsulfonyl(4-anisamido)-d(βAsp)}-[Dap]L[NMeI][β3hP]-NH2)
